{
  "source": "patent US20240060999A1",
  "about": "“BLOOD COAGULATION INSPECTION METHOD” (FUJIMORI KOGYO CO., LTD, priority 2020, published 2024)",
  "system": "whole blood",
  "experiment": "ROTEM whole blood coagulation with dialyzed Dade Innovin (recombinant tissue factor) 0.569 μg/mL + Ca 12 mM + CTI 20 μg/mL + PKSI-527 40 μM",
  "format": "cell-based",
  "conditions": "Ex26; for CT (clotting time): Innovin 0.569 μg/mL+Ca+CTI+PKSI-527, heparan sulfate 2 μg/mL",
  "procedure": "ROTEM was used to analyze blood coagulation.\nBlood was collected using a blood collection tube containing 3.2% sodium citrate manufactured by Terumo Corporation.\nBlood coagulation was analyzed in the case of having added 4% (final concentration 0.569 μg/mL) of Dade Innovin (recombinant tissue factor: Sysmex Corporation) having being diluted by 50 times after dialysis, calcium chloride (Ca; final concentration 12 mM), heparan sulfate (final concentration 0 or 2 μg/mL), CTI (final concentration 20 μg/mL), PKSI-527 (final concentration 40 μM) without and with a soluble thrombomodulin (rTM: final concentration 30 nM) further having been added, as well as with an APC inhibitory aptamer (HS02-44G; final concentration 1 μM) in addition to 30 nM of soluble thrombomodulin.\nBlood coagulation was analyzed in the case of having added 4% (final concentration 0.569 μg/mL) of 50-fold diluted Dade Innovin (recombinant tissue factor: Sysmex Corporation) after dialysis, calcium chloride (Ca; final concentration 12 mM), low molecular weight heparan (trade name FRAGMIN; Pfizer) (final concentration 0 or 0.2 U/mL), CTI (final concentration 20 μg/mL), and PKSI-527 (final concentration 40 μM) with and without a soluble thrombomodulin (rTM; final concentration 30 nM) further having been added, as well as with an APC inhibitory aptamer (HS02-44G; final concentration 1 μM) in addition to 30 nM soluble thrombomodulin.\nROTEM was used to analyze coagulation.\nBlood coagulation was analyzed in the case of having added 4% (final concentration 0.569 μg/mL) of 50-fold diluted Dade Innovin (recombinant tissue factor: Sysmex Corporation) after dialysis, calcium chloride (Ca; final concentration 12 mM), ARIXTRA (final concentration 0 or […]), CTI (final concentration 20 μg/mL), and PKSI-527 (final concentration 40 μM), without and with thrombomodulin (rTM; final concentration 30 nM) further having been added, as well as with an APC inhibitory aptamer (HS02-44G; final concentration 1 μM) in addition to soluble thrombomodulin 30 nM.",
  "data": [
    {"substance": "Heparan sulfate", "values": [
      {"measurement": "CT (clotting time)", "setting": "no rTM", "result": 410, "unit": "s"},
      {"measurement": "CT (clotting time)", "setting": "rTM 30 nM", "result": 904, "unit": "s"},
      {"measurement": "CT (clotting time)", "setting": "rTM 30 nM+APC inhibitory aptamer 1 μM", "result": 643, "unit": "s"},
      {"measurement": "anticoagulation ability of the soluble thrombomodulin", "setting": "addition of heparan sulfate 2 μg/mL, rTM 30 nM", "result": "markedly enhanced"}
    ]}
  ]
}
